Experimental findings from US20150290200A1, “INTRACELLULAR KINASE INHIBITORS” (Pharmacyclics Inc., priority 2006, published 2015) are described below.

One test addresses T1, ITK kinase domain (Homo sapiens, UniProt Q08881).
T1 construct: N-terminally His-tagged ITK kinase domain (amino acids 352-617); His (N); made in house
T1 sequence (Q08881 352-617): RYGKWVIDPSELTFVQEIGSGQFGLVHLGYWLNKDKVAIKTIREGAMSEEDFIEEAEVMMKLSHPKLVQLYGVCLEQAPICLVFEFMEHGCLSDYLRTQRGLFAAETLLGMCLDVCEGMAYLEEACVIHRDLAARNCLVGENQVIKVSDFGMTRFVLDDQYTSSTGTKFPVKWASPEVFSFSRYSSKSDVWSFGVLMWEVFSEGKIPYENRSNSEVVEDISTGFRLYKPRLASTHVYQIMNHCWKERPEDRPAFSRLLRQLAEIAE
The test can be described thus: In vitro kinase assay (HITHUNTER enzyme fragment complementation), ITK. Format: biochemical. On the procedure: Compounds were screened using the HITHUNTER™ enzyme fragment complementation method (Discoverx). Briefly, a recombinantly produced, N-terminally His-tagged ITK kinase domain (amino acids 352-617) was incubated with various concentrations of individual compounds. ATP and substrate were added, and the kinase reaction was allowed to proceed for 2-16 hours. Commercially available detection reagents were added and allowed to react for 2-4 hours. The reaction was evaluated by luminescence. Initial results were confirmed using full-length recombinant ITK protein.
(§1) In order to confirm the mechanism by which compounds depicted herein interact with the kinase domain of Tec and EGFR kinases, we created a point mutant of the ITK kinase domain, whereby the key amino acid, namely C442 was mutated to alanine. The protein was expressed in a commercial baculovirus expression system using the manufacturer's general protocol (Invitrogen, pBlueBac). Protein was expressed and purified using standard techniques. […] While the activity of WT-ITK was inhibited by compounds depicted in this application, the same compounds had no activity towards the C442A mutant kinase domain.

A further test deals with T2, LCK kinase domain (Homo sapiens, UniProt P06239).
T2 construct: The kinase domains of BTK, LCK and ERK were expressed as recombinant purified proteins; made in house
The test can be described thus: In vitro kinase assay (HITHUNTER), LCK. In kind it is biochemical. The settings on record: Table 2. The text has this: (§2) Similarly, commercially available reagents such as HITHUNTER™ were used to evaluate the effect of compounds on the activity of additional kinases. The kinase domains of BTK, LCK and ERK were expressed as recombinant purified proteins were used for these studies.

For another test, the target named is T3, BTK kinase domain (Homo sapiens, UniProt Q06187).
T3 construct: The kinase domains of BTK, LCK and ERK were expressed as recombinant purified proteins; made in house
Put plainly: In vitro kinase assay (HITHUNTER), BTK. Format: biochemical. As to conditions: Table 2.
Excerpt: as §2

In test [1] the test system is T cell leukemia/lymphoma cells. The test can be described thus: Mouse in vivo tumor model, peritoneal lavage and FACS analysis. More on the design: species or system NOD/SCID mice. The settings on record: ip, intraperitoneal, relative to mock group treated with vehicle, read-out: % inhibition tumor growth. As to the method:
Several representative compounds were evaluated for efficacy in mouse in vivo tumor models. NOD/SCID mice were implanted intraperitoneally with T cell leukemia/lymphoma cells. One group was treated with vehicle alone (mock treatment) while the other groups were treated with several small molecule inhibitors via intraperitoneal route. Tumor growth was evaluated by peritoneal lavage and FACS analysis. Table 6 summarizes percent inhibition of tumor growth relative to a mock group treated with vehicle alone.
Background: A flow cytometer gives signals particle by particle.

The next test addresses T4, C442A-ITK kinase domain (Homo sapiens, UniProt Q08881, C442A).
T4 construct: we created a point mutant of the ITK kinase domain; made in house; host or cells: baculovirus expression system (Invitrogen, pBlueBac)
T4 sequence (Q08881 363-615 C442A limits assumed): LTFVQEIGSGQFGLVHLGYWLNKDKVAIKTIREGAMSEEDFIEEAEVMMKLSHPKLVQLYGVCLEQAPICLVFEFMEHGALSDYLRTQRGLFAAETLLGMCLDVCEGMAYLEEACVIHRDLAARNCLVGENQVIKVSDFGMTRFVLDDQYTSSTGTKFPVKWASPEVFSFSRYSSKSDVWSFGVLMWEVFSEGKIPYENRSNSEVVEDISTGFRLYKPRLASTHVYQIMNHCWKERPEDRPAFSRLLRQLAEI
Put plainly: In vitro kinase assay, C442A point mutant of ITK kinase domain. Format: biochemical. The settings on record: Table 8.
Excerpt: as §1

[2] abbreviates: Table 8, wild type ITK kinase domain, read-out: IC50 wild-type ITK.

Molecules are shown by their SMILES. Read-outs that look alike come from different tables or passages of the source. Bounds are passed on as bounds.

T2 sequence (P06239 245-498 limits assumed, species assumed): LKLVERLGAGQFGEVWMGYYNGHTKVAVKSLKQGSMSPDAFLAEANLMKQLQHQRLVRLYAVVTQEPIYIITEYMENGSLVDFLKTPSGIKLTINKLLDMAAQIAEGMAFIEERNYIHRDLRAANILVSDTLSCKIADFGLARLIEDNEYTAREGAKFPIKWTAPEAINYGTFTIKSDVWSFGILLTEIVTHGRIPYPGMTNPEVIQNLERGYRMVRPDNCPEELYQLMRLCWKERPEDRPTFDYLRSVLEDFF
T3 sequence (Q06187 402-655 limits assumed): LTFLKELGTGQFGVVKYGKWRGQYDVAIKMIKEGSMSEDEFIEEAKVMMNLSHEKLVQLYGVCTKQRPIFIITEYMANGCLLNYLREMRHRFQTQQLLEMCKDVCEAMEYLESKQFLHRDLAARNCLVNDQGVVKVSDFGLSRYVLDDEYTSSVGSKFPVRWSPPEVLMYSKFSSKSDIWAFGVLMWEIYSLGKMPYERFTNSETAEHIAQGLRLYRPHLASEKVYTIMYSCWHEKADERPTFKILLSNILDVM

By IC50 is commonly meant the concentration that gives 50% inhibition. Turning to `O=C(CCN1CCOCC1)c1ccc(-c2ccccc2)cc1`, the IC50 was 40.2 nM at ITK kinase domain (Table 2, read-out: IC50 ITK); 8040 nM against LCK kinase domain; 36.9 nM on BTK kinase domain.

Consider `O=C(CCN1CCOCC1)c1ccccc1C(F)(F)F`, for which the IC50 on ITK kinase domain (Table 2, read-out: IC50 ITK) is 569 nM; against BTK kinase domain, 1020 nM. Further, the “IC50 LCK” value at LCK kinase domain is “NO IC50”.

In the case of `Cc1ccccc1C(=O)CCN1CCOCC1`, the IC50 at ITK kinase domain (Table 2, read-out: IC50 ITK) was found to be 611 nM; on BTK kinase domain, 2310 nM. Moreover, the “IC50 LCK” value against LCK kinase domain is recorded as “NO IC50”.

Turning to `O=C(CCN1CCOCC1)c1cc(F)ccc1Cl`, the IC50 was 935 nM on ITK kinase domain (Table 2, read-out: IC50 ITK); 29500 nM at LCK kinase domain; 993 nM on BTK kinase domain.

In the case of `O=C(CCN1CCOCC1)c1cc(F)ccc1F`, the IC50 at ITK kinase domain (Table 2, read-out: IC50 ITK) is 874 nM; at BTK kinase domain, 2580 nM. The “IC50 LCK” value against LCK kinase domain is on record as “NO IC50”.

`CCOc1ccccc1C(=O)CCN1CCOCC1`: the IC50 stood at 1280 nM at ITK kinase domain (Table 2, read-out: IC50 ITK); 705000 nM against LCK kinase domain; 556 nM at BTK kinase domain.

Consider `O=C(CCN1CCOCC1)c1ccc(N2CCOCC2)cc1`, for which the IC50 on ITK kinase domain (Table 2, read-out: IC50 ITK) came out at 1410 nM; at LCK kinase domain it was 27100 nM; against BTK kinase domain, 4140 nM.

For `CN(CCC(=O)C1=CC2NCC(=O)OC2C=C1)Cc1ccc(F)cc1` (centres unmarked), the inhibition in vivo at 80 mg/kg in test [1] lay in the range of 90 to 99%.

Take `CN(C)C1CCN(CCC(=O)C2=CC3NCC(=O)OC3C=C2)CC1` (centres unmarked): the inhibition in vivo at 80 mg/kg in test [1] stood at 99%.

Consider `CN(C)C1CCN(CCC(=O)c2ccc3c(c2)NC(=O)CO3)C1` (centres unmarked), for which, in test [1], the inhibition in vivo at 100 mg/kg worked out at 99%.

Turning to `O=C(CCN1CCOCC1)c1ccc(-c2cccnc2)cc1`, in test [1], the inhibition in vivo at 100 mg/kg is 99%.

Take `COc1ccc(C(=O)CCN2CCC(N(C)C)CC2)cc1OC`: the inhibition in vivo at 80 mg/kg in test [1] was 81 to 95%.

Regarding `O=C1COc2ccc(C(=O)CCN3CCOCC3)cc2N1` [drawing 120], the IC50 on ITK kinase domain (Table 2, read-out: IC50 ITK) came to 40 nM; against LCK kinase domain it was 2890 nM; against BTK kinase domain it was 276 nM.

On to `O=C(CCN1CCOCC1)c1ccc(F)cc1` [drawing 122], for which the IC50 at ITK kinase domain (Table 2, read-out: IC50 ITK) is 13 nM; on LCK kinase domain it was 27700 nM; on BTK kinase domain, 1410 nM.

For the compound `COc1ccc(C(=O)CCN2CCOCC2)cc1OC` [drawing 124], the IC50 on ITK kinase domain (Table 2, read-out: IC50 ITK) worked out at 14 nM; against LCK kinase domain, 23900 nM; at BTK kinase domain it was 1840 nM.

Regarding `O=C(CCN1CCOCC1)c1ccc2ccccc2c1` [drawing 129], the IC50 on ITK kinase domain (Table 2, read-out: IC50 ITK) turned out to be 36 nM; on LCK kinase domain, 20000 nM; on BTK kinase domain, 39 nM.

On to `CN(C)C1CCN(CCC(=O)c2ccc3ccccc3c2)C1` (centres unmarked) [drawing 240], for which the inhibition in vivo at 100 mg/kg in test [1] lay in the range of 70 to 90%.

Turning to `O=C(CCN1CCOCC1)c1ccc2ccccc2c1` [drawing 241], the inhibition in vivo at 100 mg/kg in test [1] was in the range of 85 to 98%.

Turning to `COc1ccc(C(=O)CCN2CCOCC2)cc1OC` [drawing 242], in test [1], the inhibition in vivo at 80 mg/kg lay within 92 to 99%.

Turning to `O=C(CCN1CCOCC1)c1ccc(F)cc1` [drawing 243], in test [1], the inhibition in vivo at 80 mg/kg fell in the range of 50 to 80%.

With `O=C(CCN1CCOCC1)c1ccc2occc2c1` [drawing 246], the inhibition in vivo at 80 mg/kg in test [1] lay within 67 to 81%.

`O=C(CCN1CCOCC1)c1cc2ccccc2cn1` [drawing 247]: the inhibition in vivo at 80 mg/kg in test [1] lay within 92 to 99%.

For `COc1cc2c(cc1OC)CN(CCC(=O)c1ccc3c(c1)NC(=O)CO3)CC2` [drawing 249], the inhibition in vivo at 80 mg/kg in test [1] is 97 to 99%.

In the case of `NC(=O)c1ccc2cc(C(=O)CCN3CCOCC3)ccc2c1` [drawing 250], the inhibition in vivo at 30 mg/kg in test [1] (30 mg/kg) worked out at 99%.

For the compound `O=C1COc2ccc(C(=O)CCN3CCOCC3)cc2N1` [drawing 253], the inhibition in vivo at 20 mg/kg in test [1] (20 mg/kg) is 40%.

On to `CN(C)C1CCN(CCC(=O)c2ccc3ccccc3c2)C1` (centres unmarked) [drawing 257], for which the IC50 at ITK kinase domain (setting [2]) was 11 nM; on C442A-ITK kinase domain it was greater than 10000 nM.

Turning to `O=C(CCN1CCOCC1)c1ccc(F)cc1` [drawing 258], the values for the IC50 on ITK kinase domain (setting [2]) and against C442A-ITK kinase domain were 49.6 nM and greater than 10000 nM, respectively.

For `NC(=O)c1ccc2cc(C(=O)CCN3CCOCC3)ccc2c1` [drawing 259], the IC50 at ITK kinase domain (setting [2]) was 11.1 nM; against C442A-ITK kinase domain, greater than 10000 nM.
